The values below come from US11299453B2 (Universität zu Köln, priority 2017, dated 2022).

Structures are written as SMILES. Read-outs that look alike come from different tables or passages of the source.

Series [1] has as its system murine and human PSCs. Kind of series: Dose response assays, statements over murine and human PSCs. In kind it is cell-based. To be noted: for IC50: iPSC, 48 h, read-out: IC50 values, range over murine iPSC line, two murine ESC lines and human iPSC line. As to the method:
(§1) Serial dilutions of DMSO stock solutions of PluriSIn #1 (Sigma-Aldrich, catalog number SML0682) or one of small molecules SM1-SM10, were prepared from 20 mM stock solutions with cell culture medium. Murine PSCs were dissociated with 0.05% trypsin-EDTA, seeded on 0.1% gelatin-coated 96-well plates with a density of 5000 cells/well and cultured in maintenance medium supplemented with 1000 U/ml of mLIF. After 1 day, cells were incubated with 40 μM PluriSIn #1 and derivatives for 72 h or with 0.01-25 μM SMs for 48 h, respectively. For treatment of corresponding PSC-derived CMs with SMs, puromycin-selected miPSC-CMs from day 14 of differentiation were dissociated with 0.25% trypsin-EDTA as described above and plated on 96-well plates (5×10^4 cells/well) which were pre-coated with 5 μg/ml fibronectin (PromoCell, Heidelberg, Germany). After culturing miPSC-CMs with 8 μg/ml puromycin for 2 more days, they were incubated in differentiation medium supplemented with 0.1-100 μM of SMs for 48-72 h. Following small molecule treatment, cell viability was determined with PrestoBlue cell viability reagent (Life Technologies). To this end, cells were washed with PBS (with calcium and magnesium, Life Technologies) and incubated with PrestoBlue reagent diluted in cell culture medium for 40 min at 37° C.
(§2) Fluorescence intensities correlating with the number of viable cells in the wells were measured in black flat-bottom 96-well plates (Greiner Bio-One, Kremsmünster, Austria) with a GeniosPro microplate reader (Tecan, Männedorf, Schweiz).
IC50 values were determined by regression analysis of dose-response curves upon logarithmic transformation. Microscopic images of PSCs were taken with a Zeiss Axiovert 100 inverted microscope and GFP images of CMs were captured with a Zeiss Axiovert 200M fluorescence microscope (both Carl Zeiss, Oberkochen, Germany) and analyzed with Zeiss Axiovision 4.5 software (Carl Zeiss).
In order to quantify compound cytotoxicity, dose response assays were performed by treating PSCs with compound concentrations between nontoxic 0.01 μM and PSC-eliminating 10 μM for 48 h. Murine iPSCs αPIG-AT25, embryonic stem cell lines αPIG44-D3 and R1, and human induced pluripotent stem cell (hiPSC) line NP0014-C6 were used. Cell culture and dose response assays were performed as described above.

Series [2] can be described thus: Cell viability (PrestoBlue) of miPSC-derived cardiomyocytes. In kind it is cell-based, murine. Particulars: mouse, αPIG-AT25 miPSC-derived cardiomyocytes (puromycin-selected), 10 μM, 72 h of exposure. The protocol:
The differentiation of transgenic mPSCs was initiated in mass cultures as briefly described below. One million cells were transferred per non-adhering 10 cm dish with 14 ml differentiation medium composed of Iscove's Modified Dulbecco's Medium (IMDM) with GlutaMAX (Life Technologies) supplemented with 20% FBS, 1×NEAA and 100 μM β-ME. Embryoid bodies (EBs) from day 2 of differentiation were transferred in a 250 ml spinner flask (CELLSPIN 250, Integra Biosciences, Fernwald, Germany) with a density of 3×10^4 EBs per 200 ml of differentiation medium. On the first 2 days of differentiation medium was supplemented with 50 μg/ml L-ascorbic acid phosphate (AA, Wako pure chemicals industry, Japan) in order to promote the development of cardiac cells. For the selection of GFP-expressing CMs, 50 ml of the medium was exchanged with fresh differentiation medium and 8 μg/ml puromycin (Life Technologies) were supplemented on day 9 of differentiation. Two days later, the cardiac clusters were transferred on non-adhering 10 cm dishes with fresh differentiation medium containing 8 μg/ml puromycin. In the further course of differentiation medium was exchanged every 2-3 days. If not otherwise specified, the purification of GFP-positive CMs with puromycin was continued until day 16 of differentiation. For single cell analyses and transfer of PSC-derived CMs on cell culture plates, cardiac clusters were dissociated with 0.25% trypsin-EDTA (Life Technologies) supplemented with 50 U/ml DNase I (AppliChem, Darmstadt, Germany) for 20-30 min at 37° C. The mPSC-derived CMs were filtered through a polyamide membrane with […] pore size (Sefar, Heiden, Switzerland). Cell numbers were determined with a Neubauer hemocytometer and cells were stored on ice until further use.
as §1, §2
The selectivity of compounds was investigated by comparing their cytotoxicity against undifferentiated iPSCs and iPSC-derived CMs. Murine iPSCs αPIG-AT25 were incubated for 48 h with compounds SM1, SM2, SM4, SM5, SM6 and SM8 in concentrations of 0.01 to 10 μM. Cell culture and cardiac differentiation were performed as described above. Experiments were run at least in quadruplicate. The cell viability was determined using PrestoBlue cell viability reagent.
The viability of salicylic diamine-treated CMs was confirmed by 72 h of exposure to concentrations of 0.01 μM, 0.1 μM, 1 μM, 10 μM and 25 μM of compounds SM1, SM2, SM4, SM5, SM6 and SM8.

The subject of series [3] is miPSC-CM monolayers. Briefly: Cardiomyocyte contraction rate by video imaging. The series is classed as cell-based, murine. To be noted: 10 μM, 48 h treatment. The protocol:
The effect of compound treatment on CM beating frequency was determined by video imaging of iPSC-CM monolayers after exposure to SMs. On day 14 of differentiation puromycin-selected miPSC-CMs were plated on a fibronectin-coated multi-well cell culture plate (10^5 cells/cm^2). […] Following SM treatment, cells were washed twice with PBS (with calcium and magnesium) and cultured for 72 h in fresh differentiation medium. […] The number of beats per each video sequence was quantified and the contraction rate was calculated in beats per minute.
Further, the effect of compound treatment on the CM beating frequency was determined by video imaging of iPSC-CM monolayers after exposure to compounds as described above.

The test system of series [4] is αPIG-AT25 miPSC-derived cardiomyocytes. Kind of series: Cell viability (PrestoBlue) of miPSC-derived cardiomyocytes. The series is classed as cell-based, murine. To be noted: 48 h treatment.
[5] abbreviates: read-out: decrease of cardiomyocyte viability, in average over SM1, SM4 and SM8.
Setting [6] is: read-out: decrease of cardiomyocyte viability.

What is called IC50 is the concentration that inhibits the measured activity by half. `Oc1c(CNC2CCCC[C@@H]2NCc2cccc(-c3ccccc3)c2O)cccc1-c1ccccc1` (stereo partly drawn) [SM1, (1S,2S)-N,N′-di[(2-hydroxy-3-phenyl)-benzyl]-1,2-diaminocyclo-hexane]: the IC50 in series [1] lay in the range of 100 to 5000 nM. Moreover, in series [2] (setting [5]), the cytotoxicity at 72 h, 10 μM was determined as 79.8 ± 14.7%.

Take `Oc1c(/C=N/[C@H]2CCCC[C@@H]2NCc2cccc(-c3ccccc3)c2O)cccc1-c1ccccc1` [SM2, (1S,2S)-N-[(2-hydroxy-3-phenyl)-benzyl]-N′-[(2-hydroxy-3-phenyl)-benzylidene]-1,2-diaminocyclohexane]: the IC50 in series [1] lay in the range of 100 to 5000 nM. Moreover, the “decrease of contraction rate of CMs compared to DMSO-treated control” value (“decrease of contraction rate of CMs” for short) in series [3] is recorded as 61.02±2.67%. For the same compound, the “microscopic analysis of CM monolayers” value in series [4] is recorded as “intact CM monolayers”. In series [2] (setting [6]), the cytotoxicity at 72 h, 10 μM is 18.5 ± 7.06%.

On to `Oc1c(CN[C@@H]2CCCC[C@H]2NCc2cccc(-c3ccccc3)c2O)cccc1-c1ccccc1` [SM4, (1R,2R)-N,N′-di[(2-hydroxy-3-phenyl)-benzyl]-1,2-diaminocyclohexane], for which the IC50 in series [1] fell in the range of 100 to 5000 nM. For the same compound, in series [2] (setting [5]), the cytotoxicity at 72 h, 10 μM came to 79.8 ± 14.7%.

As to `Oc1c(/C=N/[C@@H]2CCCC[C@H]2NCc2cccc(-c3ccccc3)c2O)cccc1-c1ccccc1` [SM5, (1R,2R)-N-[(2-hydroxy-3-phenyl)-benzyl]-N′-[(2-hydroxy-3-phenyl)-benzylidene]-1,2-diaminocyclohexane], the half-maximal inhibitory concentration (IC50) in series [1] was in the range of 100 to 5000 nM. Moreover, in series [2] (setting [6]), the cytotoxicity at 72 h, 10 μM stood at 14.1 ± 13.8%.

Take `Oc1ccccc1CN[C@@H]1CCCC[C@H]1NCc1ccccc1O` [SM6, (1R,2R)-N,N′-di(2-hydroxybenzyl)-1,2-diaminocyclohexane]: in series [1] (10 μM, two day-treatment), the “effect on pluripotent stem cells” value is given as “elimination of pluripotent stem cells”. The IC50 in series [1] fell in the range of 100 to 5000 nM. In series [3], the “decrease of contraction rate of CMs” value was found to be 24.26±15.71%. The “microscopic analysis of CM monolayers” value in series [4] was “intact CM monolayers”. In addition, in series [2] (setting [6]), the cytotoxicity at 72 h, 10 μM was determined as 11 ± 13.2%.

In the case of `Oc1c(CNC2CCCC[C@@H]2NCc2cccc(-c3ccccc3)c2O)cccc1-c1ccccc1` (stereo partly drawn) [SM8, (1S,2R)-N,N′-di[(2-hydroxy-3-phenyl)-benzyl]-1,2-diaminocyclohexane], in series [3], the “decrease of contraction rate of CMs” value is 71.37±26.91%. The “microscopic analysis of CM monolayers” value in series [4] is “intact CM monolayers”.
